Measurements published in PMC12595484, “Optimizing multifunctional fluorescent ligands for intracellular labeling” (Proceedings of the National Academy of Sciences of the …, 2025).

Test system: HEK293T cells expressing msGFP–HaloTag localized to the mitochondrial outer membrane
Assay: HEK293T labeling and fluorescence microscopy
Format: cell-based
From the text: Plasmid construction for mitochondria imaging and affinity purification. HaloTag, amplified from the pHTC HaloTag CMV-neo Vector (Promega; G7711) and monomeric-superfolder green fluorescent protein (msGFP; lab stock), was fused to the mitochondrial targeting signal from OMP25,8 interspacing flexible GS(GSS)4 linkers between each domain by PCR Splicing by Overlap Extension (SOE). This construct was subcloned into hSynapsin promoter bearing a copy of FUGW.9 FUGW was a gift from David Baltimore (Addgene plasmid # 14883; RRID:
Addgene_14883).10 This construct was designated as pF(UG) hSyn HaloTag-TEV-4×GS-msGFP- […]
HEK293T cell culture. HEK293T cells (ATCC) were passaged before 80% confluency by trypsinization (Corning; 25-053-CI) and trituration. The cell suspension was then plated on glass coverslips (Warner instruments; 64-0734, CS-18R17) coated with poly-D-lysine (Thermofisher; ICN10269491) and cultured in Dulbecco's modified Eagle medium (DMEM; ThermoFisher; 11965-118) supplemented with 10% (v/v) fetal bovine serum (FBS, Atlanta Biological) and penicillin/streptomycin (pen/strep; ThermoFisher; MT-30-001-CI) at 37 °C in a humidified 5% (v/v) CO2 environment following ATCC guidelines. These HEK293T cells were tested for mycoplasma contamination using the Universal Mycoplasma Detection Kit (ATCC; 30-1012K) and validated using Short Tandem Repeat profiling by ATCC (ATCC; 135-XV) within the previous year or were from newly purchased stock from ATCC. HEK293T cells were transfected with pF(UG) hSyn HaloTag-TEV-4×GS-msGFP-mito using a standard calcium phosphate protocol11 or using lipofectamine LTX reagent (ThermoFisher; 15338100). We note that this plasmid is optimized for lentivirus-mediated expression, but robust expression in HEK293T cells […]
HEK293T labeling and fluorescence microscopy. One day after HEK293T cell transfection, the GFP fluorescence signal was confirmed, and HaloTag ligand labeling experiments were conducted. For pulse–chase experiments, HEK293T cells were incubated with biotin-HaloTag ligand (17HTL; #G8281, Promega) at either 100 nM or 10 μM for 1 hour at 37 °C and chased with 100 nM of JF549-HaloTag ligand (2HTL). We also evaluated a commercial biotin-HaloTag ligand […]
indicated in the product information12 and from a previous publication.13 For labeling with biotin-JF-HaloTag ligands 13HTL–16HTL, cells were incubated with 100 nM or 1 µM ligand for 0.5–2 h at 37 °C. For imaging, the coverslips containing HEK293T cells were fixed with 4% (w/v) paraformaldehyde in PBS at 37 °C for 10 min, washed with PBS (3×), and mounted on glass slides with ProLong Glass Antifade Mountant with NucBlueTM Stain (ThermoFisher; P36981). These cells were imaged using a Zeiss LSM 880 with Airyscan and a plan-apochromatic 63×/1.40 oil objective in Fast Airyscan mode. The same image acquisition settings were used for each trial and condition. Images were then processed with automatic Airyscan deconvolution settings. For quantitation of labeling intensity, ROIs were drawn surrounding individual HEK cells, and the average fluorescence ratio (JF/msGFP) from multiple cells in each condition was measured; no background subtraction was necessary. […]
JF608-HaloTag ligand (14HTL), biotin-JF646-HaloTag ligand (15HTL), or biotin-JF635-HaloTag ligand (16HTL) for 1 h at 37 °C, washed 3× with dye-free media, then fixed with 4% paraformaldehyde in 0.1 M phosphate buffer for 15 min at 37 °C. Fixed cells were then washed 3× in 1× PBS and incubated with Hoechst 33342 (5µg/mL) for 15 min at 22 °C as a nuclear counterstain. Airyscan imaging was performed on a Zeiss LSM 980 with Airyscan 2 confocal microscope using a Plan APO 63×/1.4 oil DIC M27 objective. The same acquisition settings were used for all constructs labeled with 13HTL–16HTL. These single plane images were bulk processed in ZEN Blue (Zeiss) with automatic Airyscan settings.
Dye loading kinetics. Live U2OS.H2B.HaloTag stable cells were labeled over a time course of […]

| Compound | Pearson's correlation coefficient between rhodamine and GFP signals | intracellular labeling by live-cell imaging |
| --- | --- | --- |
| C[Si]1(C)c2cc(N3CC(F)C3)ccc2C2(OC(=O)c3ccc(C(=O)NCCOCCOCCCCCCCl)cc32)c2ccc(N3CC(F)C3)cc21 [6HTL, JF635–HaloTag ligand, reference compound] | 0.92 | – |
| O=C(CCCCC1SCC2NC(=O)NC21)NCCOCCOCCNC(=O)C1C[N+](=c2ccc3c(-c4cc(C(=O)NCCOCCOCCCCCCCl)ccc4C(=O)[O-])c4ccc(N5CCC5)cc4oc-3c2)C1 (stereo not drawn) [13HTL, biotin–JF549–HaloTag ligand] | – | low intracellular signal |
| C[Si]1(C)C2=CC(=[N+]3CC(C(=O)NCCOCCOCCNC(=O)CCCC[C@@H]4SC[C@@H]5NC(=O)N[C@@H]54)C3)C=CC2=C(c2cc(C(=O)NCCOCCOCCCCCCCl)ccc2C(=O)[O-])c2ccc(N3CCC3)cc21 (stereo partly drawn) [15HTL, biotin–JF646–HaloTag ligand] | 0.89 | robust labeling and colocalization with mitochondrial-localized GFP |
| C[Si]1(C)C2=CC(=[N+]3CC(F)(C(=O)NCCOCCOCCNC(=O)CCCC[C@@H]4SC[C@@H]5NC(=O)N[C@@H]54)C3)C=CC2=C(c2cc(C(=O)NCCOCCOCCCCCCCl)ccc2C(=O)[O-])c2ccc(N3CC(F)C3)cc21 (stereo partly drawn) [16HTL, biotin–JF635–HaloTag ligand] | 0.87 | robust labeling and colocalization with mitochondrial-localized GFP |
